Source: ChEMBL document CHEMBL1153339, “Design, synthesis, and anti-HCV activity of thiourea compounds” (Bioorg Med Chem Lett, 2009)

Legend:
[1] = Selectivity index, ratio of CC50 for human Ava5 cells to EC50 for HCV 1b
[2] = Cytotoxicity against human Ava5 cells; type: cell-based
Hepatitis C virus = assay: Antiviral activity against HCV 1b infected in human Ava5 cells expressing EG(delta-4AB)SEAP fusion protein by subgenomic replicon assay; type: functional, organism-based, Hepacivirus hominis; details: genotype 1b

Row | EC50 (Hepatitis C virus) [nM] | Structure (SMILES) | Ratio CC50/EC50 [1] | CC50 [2] [nM]
1 | 59 | NC(=S)Nc1cccc(OCCCCCOc2ccccc2)c1 | >847 | > 50000
2 | 1010 | NC(=S)Nc1ccccc1OCCCCCc1ccccc1 | 31 | 31000
3 | 594 | CCN(CC)c1ccc(OCCCCCOc2cccc(NC(N)=S)c2)cc1 | >84 | > 50000
4 | 279 | NC(=S)Nc1cccc(OCCCCCOc2ccccn2)c1 | >179 | > 50000
5 | 1130 | NC(=S)Nc1cccc(OCCCCCOc2cccnc2)c1 | >44 | > 50000
6 | 58 | NC(=S)Nc1cccc(OCCCCCOc2cccc(Cc3ccccc3)c2)c1 | 224 | 13000
7 | 231 | NC(=S)Nc1cccc(OCCCc2ccccc2)c1 | >216 | > 50000
8 | 58 | NC(=S)Nc1cccc(OCCCCCOc2cccc3ccccc23)c1 | 241 | 14000
9 | 191 | NC(=S)Nc1cccc(OCCCCCOc2ccc(-c3ccccc3)cc2)c1 | >262 | > 50000
10 | 214 | NC(=S)Nc1cccc(OCCCCCOc2cccc(-c3ccccc3)c2)c1 | 61 | 13000
11 | 97 | NC(=S)Nc1cccc(OCCCCCCCc2ccccc2)c1 | 237 | 23000
12 | 197 | NC(=S)Nc1ccc(OCCCCCc2ccccc2)cc1 | 51 | 10000
13 | 708 | CCCNC(=S)Nc1cccc(OCCCCCc2ccccc2)c1 | 45 | 32000
14 | 561 | NC(=S)Nc1cccc(OCc2ccccc2)c1 | >89 | > 50000
15 | 822 | CNC(=S)Nc1cccc(OCCCCCc2ccccc2)c1 | >61 | > 50000
16 | 255 | NC(=S)Nc1cccc(OCCCCCOc2ccc(-n3cccc3)cc2)c1 | >196 | > 50000
17 | 121 | NC(=S)Nc1cccc(OCCCCCOc2ccc(-c3cccs3)cc2)c1 | >413 | > 50000
18 | 7240 | S=C(NCc1ccccc1)Nc1cccc(OCCCCCc2ccccc2)c1 | 4 | 32000

More lines, now with the values behind:

Row | Structure (SMILES) | EC50 (Hepatitis C virus) [nM] | Ratio CC50/EC50 [1] | CC50 [2] [nM]
19 | NC(=S)Nc1cccc(OCCCCCOc2ccc(C(=O)O)cc2)c1 | > 50000 | >1 | > 50000
20 | NC(=S)Nc1cccc(OCCCCCOc2ccc(N3CCCC3)cc2)c1 | 913 | 18 | 16000
21 | NC(=S)Nc1cccc(OCCCCCOc2cccc3ncccc23)c1 | 250 | 60 | 15000
22 | NC(=S)Nc1cccc(OCCCCCCc2ccccc2)c1 | 47 | 596 | 28000
23 | S=C(Nc1ccccc1)Nc1cccc(OCCCCCc2ccccc2)c1 | 31500 | 1 | 35000
24 | S=C(NCCc1ccccc1)Nc1cccc(OCCCCCc2ccccc2)c1 | 13400 | 2 | 33000
25 | NC(=S)Nc1cccc(OCCCCCOc2cccc(Oc3ccccc3)c2)c1 | 107 | 168 | 18000
26 | NC(=S)Nc1cccc(OCCCCCOc2ccncc2)c1 | 2990 | >17 | > 50000
27 | NC(=S)Nc1cccc(OCCCCCOc2cccc3[nH]ccc23)c1 | 355 | >141 | > 50000
28 | NC(=S)Nc1cccc(OCCCCCOc2cccc3cnccc23)c1 | 481 | 54 | 26000
29 | NC(=S)Nc1cccc(OCCc2ccccc2)c1 | 335 | >149 | > 50000
30 | NC(=S)Nc1cccc(OCCCCCOc2ccccc2-c2ccccc2)c1 | 97 | 134 | 13000
31 | NC(=S)Nc1cccc(OCCCCc2ccccc2)c1 | 159 | >314 | > 50000
32 | NC(=S)Nc1cccc(OCCCCCOc2ccc(-c3ccco3)cc2)c1 | 136 | 81 | 11000
33 | CC(CCOc1ccccc1)CCOc1cccc(NC(N)=S)c1 (stereo unspecified) | 104 | >481 | > 50000
34 | CC(C)(CCOc1ccccc1)CCOc1cccc(NC(N)=S)c1 | 105 | 124 | 13000
35 | NC(=S)Nc1cccc(OCCCCCOc2ccc(Br)cc2)c1 | 72 | 264 | 19000
36 | COc1ccc(OCCCCCOc2cccc(NC(N)=S)c2)cc1 | 218 | >229 | > 50000
37 | NC(=S)Nc1cccc(OCCCCCc2ccccc2)c1 | 48 | 458 | 22000
38 | NC(=S)Nc1cccc(NCCCCCc2ccccc2)c1 | 143 | >350 | > 50000
39 | CCNC(=S)Nc1cccc(OCCCCCc2ccccc2)c1 | 685 | >73 | > 50000
40 | NC(=S)Nc1cccc(OCCCCCOc2cccc(Nc3ccccc3)c2)c1 | 177 | 62 | 11000
41 | NC(=S)Nc1cccc(OCCCCCOc2cccc(C(=O)c3ccccc3)c2)c1 | 218 | 60 | 13000
42 | NC(=S)Nc1cccc(OCCCCCOc2ccc(N3CCCCC3)cc2)c1 | 407 | 29 | 12000
43 | NC(=S)Nc1cccc(OCCCCCOc2ccc(N3CCOCC3)cc2)c1 | 485 | >103 | > 50000
44 | NC(=S)Nc1cccc(Oc2ccccc2)c1 | 494 | >101 | > 50000
45 | NC(=S)Nc1cccc(OCCCCCOc2ccnc3ccccc23)c1 | 411 | 58 | 24000
46 | NC(=S)Nc1cccc(OCCCCCOc2ccc(F)cc2)c1 | 72 | 69 | 5000
47 | NC(=S)Nc1cccc(OCCCCCOc2ccc(Cl)cc2)c1 | 72 | 97 | 7000
